Experimental data as given in patent US5262417A, “Antibacterial quinolone compounds” (The Upjohn Company, priority 1991, dated 1993).
Values after ≈ are worked out from the molar mass of the structure shown. Read-outs that look alike come from different tables or passages of the source.

Legend:
Test in all cases: Minimum inhibitory concentration (MIC) by agar dilution
Type in all cases: cell-based
[1] = system: Acinetobacter calcoaceticus; conditions: Acinetobacter calcoaceticus, 20 h, read-out: MINIMUM INHIBITORY CONCENTRATION, Cult No. 12170, MHA
Procedure: (§1) The antibacterial activity of the compounds of Formula IC was determined by using standard testing procedures such as the determination of minimum inhibitory concentration (MIC) by agar dilution as described in "Methods for Dilution Antimicrobial Susceptibility Tests for Bacteria That Grow Aerobically" (MFT) published January 1983 by the National Committee for Clinical Laboratory Standards, 771 East Lancaster Avenue, Villanova, Pa. 19084, USA. Briefly, MIC values are determined in unsupplemented Mueller Hinton Agar (MHA). The compounds tested are diluted serially into molten MHA at 47° C. The agar is poured into petri dishes and allowed to harden. The various bacteria used for testing are grown overnight on MHA at 35° C. and transferred to Trypticase soy broth (TSB) until a turbidity of 0.5 McFarland standard is obtained. The bacteria are diluted one to 20 in TSB and inoculated on the plates (1 μl using a Steers replicator).
as §1, with “Compounds of this invention can also be tested for in vitro antimicrobial” for “The antibacterial”, “activity” for “activity of the compounds of Formula IC was determined by”, “Jan.” for “January”, “Penna.” for “Pa.”, “(1μl” for “(1 μl”, “replicator). […] The MIC test results of selected of Formula B compounds of this invention are found in Tables B2-B9.” for “replicator).”

Proteus penneri = conditions: Proteus penneri, 20 h, read-out: MINIMUM INHIBITORY CONCENTRATION, Cult No. 9679, MHA
Procedure: as §1
as §1, with “Compounds of this invention can also be tested for in vitro antimicrobial” for “The antibacterial”, “activity” for “activity of the compounds of Formula IC was determined by”, “Jan.” for “January”, “Penna.” for “Pa.”, “(1μl” for “(1 μl”, “replicator). […] The MIC test results of selected of Formula B compounds of this invention are found in Tables B2-B9.” for “replicator).”

Serratia marcescens = conditions: 20 h, read-out: MINIMUM INHIBITORY CONCENTRATION
Procedure: as §1
as §1, with “Compounds of this invention can also be tested for in vitro antimicrobial” for “The antibacterial”, “activity” for “activity of the compounds of Formula IC was determined by”, “Jan.” for “January”, “Penna.” for “Pa.”, “(1μl” for “(1 μl”, “replicator). […] The MIC test results of selected of Formula B compounds of this invention are found in Tables B2-B9.” for “replicator).”

[2] = system: Staphylococcus epidermidis; conditions: 20 h, read-out: MINIMUM INHIBITORY CONCENTRATION
Procedure: as §1
as §1, with “Compounds of this invention can also be tested for in vitro antimicrobial” for “The antibacterial”, “activity” for “activity of the compounds of Formula IC was determined by”, “Jan.” for “January”, “Penna.” for “Pa.”, “(1μl” for “(1 μl”, “replicator). […] The MIC test results of selected of Formula B compounds of this invention are found in Tables B2-B9.” for “replicator).”

Streptococcus pneumoniae = conditions: Streptococcus pneumoniae, 20 h, read-out: MINIMUM INHIBITORY CONCENTRATION, Cult No. 41, MHA
Procedure: as §1
as §1, with “Compounds of this invention can also be tested for in vitro antimicrobial” for “The antibacterial”, “activity” for “activity of the compounds of Formula IC was determined by”, “Jan.” for “January”, “Penna.” for “Pa.”, “(1μl” for “(1 μl”, “replicator). […] The MIC test results of selected of Formula B compounds of this invention are found in Tables B2-B9.” for “replicator).”

Citerobacter freundii = conditions: 20 h, read-out: MINIMUM INHIBITORY CONCENTRATION
Procedure: as §1
as §1, with “Compounds of this invention can also be tested for in vitro antimicrobial” for “The antibacterial”, “activity” for “activity of the compounds of Formula IC was determined by”, “Jan.” for “January”, “Penna.” for “Pa.”, “(1μl” for “(1 μl”, “replicator). […] The MIC test results of selected of Formula B compounds of this invention are found in Tables B2-B9.” for “replicator).”

Escherichia coli = conditions: Escherichia coli, 20 h
Procedure: as §1
as §1, with “Compounds of this invention can also be tested for in vitro antimicrobial” for “The antibacterial”, “activity” for “activity of the compounds of Formula IC was determined by”, “Jan.” for “January”, “Penna.” for “Pa.”, “(1μl” for “(1 μl”, “replicator). […] The MIC test results of selected of Formula B compounds of this invention are found in Tables B2-B9.” for “replicator).”

Streptococcus pyogenes = conditions: Streptococcus pyogenes, 20 h, read-out: MINIMUM INHIBITORY CONCENTRATION, Cult No. 152, MHA
Procedure: as §1
as §1, with “Compounds of this invention can also be tested for in vitro antimicrobial” for “The antibacterial”, “activity” for “activity of the compounds of Formula IC was determined by”, “Jan.” for “January”, “Penna.” for “Pa.”, “(1μl” for “(1 μl”, “replicator). […] The MIC test results of selected of Formula B compounds of this invention are found in Tables B2-B9.” for “replicator).”

Staphylococcus aureus = conditions: Staphylococcus aureus, 20 h
Procedure: as §1
as §1, with “Compounds of this invention can also be tested for in vitro antimicrobial” for “The antibacterial”, “activity” for “activity of the compounds of Formula IC was determined by”, “Jan.” for “January”, “Penna.” for “Pa.”, “(1μl” for “(1 μl”, “replicator). […] The MIC test results of selected of Formula B compounds of this invention are found in Tables B2-B9.” for “replicator).”

Klebsiella pneumoniae = conditions: 20 h, read-out: MINIMUM INHIBITORY CONCENTRATION
Procedure: as §1
as §1, with “Compounds of this invention can also be tested for in vitro antimicrobial” for “The antibacterial”, “activity” for “activity of the compounds of Formula IC was determined by”, “Jan.” for “January”, “Penna.” for “Pa.”, “(1μl” for “(1 μl”, “replicator). […] The MIC test results of selected of Formula B compounds of this invention are found in Tables B2-B9.” for “replicator).”

Pseudomonas aeruginosa = conditions: Pseudomonas aeruginosa, 20 h
Procedure: as §1
as §1, with “Compounds of this invention can also be tested for in vitro antimicrobial” for “The antibacterial”, “activity” for “activity of the compounds of Formula IC was determined by”, “Jan.” for “January”, “Penna.” for “Pa.”, “(1μl” for “(1 μl”, “replicator). […] The MIC test results of selected of Formula B compounds of this invention are found in Tables B2-B9.” for “replicator).”

Streptococcus faecalis = conditions: Enterococcus faecalis, 20 h, read-out: MINIMUM INHIBITORY CONCENTRATION
Procedure: as §1
as §1, with “Compounds of this invention can also be tested for in vitro antimicrobial” for “The antibacterial”, “activity” for “activity of the compounds of Formula IC was determined by”, “Jan.” for “January”, “Penna.” for “Pa.”, “(1μl” for “(1 μl”, “replicator). […] The MIC test results of selected of Formula B compounds of this invention are found in Tables B2-B9.” for “replicator).”

Enterobacter cloacae = conditions: 20 h, read-out: MINIMUM INHIBITORY CONCENTRATION
Procedure: Briefly, MIC values are determined in unsupplemented Mueller Hinton Agar (MHA). The compounds tested are diluted serially into molten MHA at 47° C. The agar is poured into petri dishes and allowed to harden. The various bacteria used for testing are grown overnight on MHA at 35° C. and transferred to Trypticase soy broth (TSB) until a turbidity of 0.5 McFarland standard is obtained. The bacteria are diluted one to 20 in TSB and inoculated on the plates (1 μl using a Steers replicator).
as §1, with “Compounds of this invention can also be tested for in vitro antimicrobial” for “The antibacterial”, “activity” for “activity of the compounds of Formula IC was determined by”, “Jan. […]” for “January 1983 by the National Committee for Clinical Laboratory Standards, 771 East Lancaster Avenue, Villanova, Pa. 19084, USA.”, “(1μl” for “(1 μl”

[3] = read-out: MINIMUM INHIBITORY CONCENTRATION, Cult No. 6674, MHA
[4] = read-out: MINIMUM INHIBITORY CONCENTRATION, Cult No. 9451, MHA
[5] = read-out: MINIMUM INHIBITORY CONCENTRATION, Cult No. 9855, MHA
[6] = read-out: MINIMUM INHIBITORY CONCENTRATION, Cult No. 9952, MHA
[7] = read-out: MINIMUM INHIBITORY CONCENTRATION, Cult No. 6685, MHA
[8] = read-out: MINIMUM INHIBITORY CONCENTRATION, Cult No. 9213, MHA
[9] = read-out: MINIMUM INHIBITORY CONCENTRATION, Cult No. 9218, MHA
[10] = read-out: MINIMUM INHIBITORY CONCENTRATION, Cult No. 9271, MHA
[11] = read-out: MINIMUM INHIBITORY CONCENTRATION, Cult No. 6676, MHA
[12] = read-out: MINIMUM INHIBITORY CONCENTRATION, Cult No. 9191, MHA
[13] = read-out: MINIMUM INHIBITORY CONCENTRATION, Cult No. 12120, MHA

Compound | MIC [1] [µg/mL] | MIC (Proteus penneri) [µg/mL] | MIC (Serratia marcescens) [µg/mL] | MIC [2] [µg/mL] | MIC (Streptococcus pneumoniae) [µg/mL] | MIC (Citerobacter freundii) [µg/mL] | MIC (Escherichia coli; [3]) [µg/mL] | MIC (Escherichia coli; [4]) [µg/mL] | MIC (Escherichia coli; [5]) [µg/mL] | MIC (Escherichia coli; [6]) [µg/mL] | MIC (Streptococcus pyogenes) [µg/mL] | MIC (Staphylococcus aureus; [7]) [µg/mL] | MIC (Staphylococcus aureus; [8]) [µg/mL] | MIC (Staphylococcus aureus; [9]) [µg/mL] | MIC (Staphylococcus aureus; [10]) [µg/mL] | MIC (Klebsiella pneumoniae) [µg/mL] | MIC (Pseudomonas aeruginosa; [11]) [µg/mL] | MIC (Pseudomonas aeruginosa; [12]) [µg/mL] | MIC (Pseudomonas aeruginosa; [13]) [µg/mL] | MIC (Streptococcus faecalis) [µg/mL] | also measured
O=C(O)c1cn(C23CC(C2)C3)c2c(F)c(N3CCNCC3)c(F)cc2c1=O [No. 1, 1-(bicyclo[1.1.1]pent-1-yl)-6,8-difluoro-1,4-dihydro-4-oxo-7-(1-piperazinyl)-3-quinolinecarboxylic acid] | 0.25 (≈ 0.666 µM) | 0.5 (≈ 1.33 µM) | 0.25 (≈ 0.666 µM) | 0.25 (≈ 0.666 µM) | 2 (≈ 5.33 µM) | 0.06 (≈ 0.16 µM) | 0.06 (≈ 0.16 µM) | 0.06 (≈ 0.16 µM) | 0.06 (≈ 0.16 µM) | 0.06 (≈ 0.16 µM) | 2 (≈ 5.33 µM) | 0.5 (≈ 1.33 µM) | 1 (≈ 2.66 µM) | 0.5 (≈ 1.33 µM) | 0.5 (≈ 1.33 µM) | 0.125 (≈ 0.333 µM) | 2 (≈ 5.33 µM) | 1 (≈ 2.66 µM) | 1 (≈ 2.66 µM) | 2 (≈ 5.33 µM) | MIC (Staphylococcus aureus; read-out: MINIMUM INHIBITORY CONCENTRATION, Cult No. 3665, MHA): 0.5 µg/mL (≈ 1.33 µM); MIC (Enterobacter cloacae): 0.06 µg/mL (≈ 0.16 µM)
O=C(O)c1cn(C23CC(C2)C3)c2cc(N3CCNCC3)c(F)cc2c1=O [No. 2, 1-(bicyclo[1.1.1]pent-1-yl)-1,4-dihydro-6-fluoro-4-oxo-7-(1-piperazinyl)-3-quinolinecarboxylic acid] | 0.5 (≈ 1.4 µM) | 0.5 (≈ 1.4 µM) | 0.5 (≈ 1.4 µM) | 0.5 (≈ 1.4 µM) | 4 (≈ 11.2 µM) | 0.06 (≈ 0.168 µM) | 0.125 (≈ 0.35 µM) | 0.125 (≈ 0.35 µM) | 0.125 (≈ 0.35 µM) | 0.125 (≈ 0.35 µM) | 2 (≈ 5.6 µM) | 0.5 (≈ 1.4 µM) | 1 (≈ 2.8 µM) | 1 (≈ 2.8 µM) | 1 (≈ 2.8 µM) | 0.25 (≈ 0.7 µM) | 4 (≈ 11.2 µM) | 2 (≈ 5.6 µM) | 1 (≈ 2.8 µM) | 4 (≈ 11.2 µM) | MIC (Enterobacter cloacae): 0.125 µg/mL (≈ 0.35 µM)
